One data set concerns HT29. To be noted: cited from earlier work.
A further data set relates to U937 leukemia cell line. The following applies: proliferation; cited from earlier work.
For data set [1], the system named is SK-BR-3 breast-derived cell line. To be noted: proliferation; cited from earlier work.
The next data set addresses SET7/9 (Homo sapiens, UniProt Q8WTS6). The following applies: cited from earlier work.
The target in another data set is PARP1 (Homo sapiens, UniProt P09874). The following applies: cited from earlier work.
Chain of PARP1 (P09874 whole entry, species assumed): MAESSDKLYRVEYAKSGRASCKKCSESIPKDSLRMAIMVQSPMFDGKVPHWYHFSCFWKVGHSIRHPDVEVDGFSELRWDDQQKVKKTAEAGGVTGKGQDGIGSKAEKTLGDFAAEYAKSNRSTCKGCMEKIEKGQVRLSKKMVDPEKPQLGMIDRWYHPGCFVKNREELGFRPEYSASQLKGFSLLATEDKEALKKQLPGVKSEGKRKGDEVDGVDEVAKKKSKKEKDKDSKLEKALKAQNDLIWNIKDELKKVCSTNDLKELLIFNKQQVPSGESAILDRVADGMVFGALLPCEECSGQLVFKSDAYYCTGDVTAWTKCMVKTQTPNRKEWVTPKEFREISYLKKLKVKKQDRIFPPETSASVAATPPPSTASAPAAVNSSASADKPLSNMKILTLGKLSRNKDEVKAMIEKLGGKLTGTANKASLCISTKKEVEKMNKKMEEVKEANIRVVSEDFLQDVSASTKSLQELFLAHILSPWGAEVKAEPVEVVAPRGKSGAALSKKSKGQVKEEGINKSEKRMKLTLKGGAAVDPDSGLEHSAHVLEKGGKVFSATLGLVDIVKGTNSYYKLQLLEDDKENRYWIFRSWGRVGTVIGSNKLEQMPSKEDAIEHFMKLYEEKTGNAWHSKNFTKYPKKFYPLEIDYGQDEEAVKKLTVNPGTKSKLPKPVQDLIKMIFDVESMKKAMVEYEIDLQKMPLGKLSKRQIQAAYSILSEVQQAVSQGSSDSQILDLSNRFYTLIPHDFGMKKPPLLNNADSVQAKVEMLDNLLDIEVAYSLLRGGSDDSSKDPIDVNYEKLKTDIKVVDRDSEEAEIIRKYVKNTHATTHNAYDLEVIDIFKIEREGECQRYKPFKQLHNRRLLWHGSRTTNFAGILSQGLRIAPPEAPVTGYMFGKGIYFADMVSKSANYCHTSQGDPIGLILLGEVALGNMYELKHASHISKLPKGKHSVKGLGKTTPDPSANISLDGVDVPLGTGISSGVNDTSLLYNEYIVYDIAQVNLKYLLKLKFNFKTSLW
Another data set deals with TNF-a. The following applies: control 325 pg/ml, cited from earlier work.
Data set [2] addresses HAT PCAF (p300/CREB-binding protein-associated factor) (Homo sapiens, UniProt Q92831). The following applies: cited from earlier work.
A further data set relates to neuroblastoma tumor. To be noted: 200 mg/kg; cited from earlier work.
The test system of data set [3] is RhoA/C-mediated, SRF-driven luciferase expression in PCS prostate cancer cells. The following applies: cited from earlier work.
A further data set has as its target Aurora B (Homo sapiens, UniProt Q96GD4). To be noted: cited from earlier work.
The target of another data set is Aurora C (Homo sapiens, UniProt Q9UQB9). The following applies: cited from earlier work.
The target of a further data set is hERG ion-channel (Homo sapiens, UniProt Q12809). The following applies: cited from earlier work.
In a further data set the test system is HL-60 cells. Put plainly: Viability of HL-60 cells expressing pLKO or shRNF5. To be noted: RNF5-KD HL-60, 24 h.
Data set [4] relates to U937 cells expressing an inducible shRNF5 vector. Put plainly: Small molecule epigenetic regulator screen. It is filed as cell-based. The following applies: 0.5 μM or 5 μM, 6 days, +Dox versus −Dox.
Another data set deals with U937 cells. As to the kind of experiment: Viability/growth of U937 cells (CellTiter Glo). In kind it is cell-based. The following applies: RNF5-KD U937, 24 h. (In general: ATP-based viability assays read luminescence as a measure of living cells.)
A further data set deals with BRD4 (Homo sapiens, UniProt O60885). The following applies: cited from earlier work.
The test system of a further data set is MCF-7 cells. To be noted: cited from earlier work.
Data set [5] deals with nuclear receptor coactivator 3 (Homo sapiens, UniProt Q9Y6Q9). To be noted: cited from earlier work.
Another data set addresses PAD3 (Homo sapiens, UniProt Q9ULW8). To be noted: cited from earlier work.
In a further data set the target is PAD1 (Homo sapiens, UniProt Q9ULC6). The following applies: cited from earlier work.
The subject of the next data set is HL-60. The following applies: cytotoxic; cited from earlier work.
A further data set has as its target REV-ERBa (Homo sapiens, UniProt P20393). The following applies: agonist; cited from earlier work.
The target in a further data set is UTX (Homo sapiens, UniProt O15550). To be noted: as measured by mass spectrometry; cited from earlier work.
Chain of UTX (O15550 whole entry, species assumed): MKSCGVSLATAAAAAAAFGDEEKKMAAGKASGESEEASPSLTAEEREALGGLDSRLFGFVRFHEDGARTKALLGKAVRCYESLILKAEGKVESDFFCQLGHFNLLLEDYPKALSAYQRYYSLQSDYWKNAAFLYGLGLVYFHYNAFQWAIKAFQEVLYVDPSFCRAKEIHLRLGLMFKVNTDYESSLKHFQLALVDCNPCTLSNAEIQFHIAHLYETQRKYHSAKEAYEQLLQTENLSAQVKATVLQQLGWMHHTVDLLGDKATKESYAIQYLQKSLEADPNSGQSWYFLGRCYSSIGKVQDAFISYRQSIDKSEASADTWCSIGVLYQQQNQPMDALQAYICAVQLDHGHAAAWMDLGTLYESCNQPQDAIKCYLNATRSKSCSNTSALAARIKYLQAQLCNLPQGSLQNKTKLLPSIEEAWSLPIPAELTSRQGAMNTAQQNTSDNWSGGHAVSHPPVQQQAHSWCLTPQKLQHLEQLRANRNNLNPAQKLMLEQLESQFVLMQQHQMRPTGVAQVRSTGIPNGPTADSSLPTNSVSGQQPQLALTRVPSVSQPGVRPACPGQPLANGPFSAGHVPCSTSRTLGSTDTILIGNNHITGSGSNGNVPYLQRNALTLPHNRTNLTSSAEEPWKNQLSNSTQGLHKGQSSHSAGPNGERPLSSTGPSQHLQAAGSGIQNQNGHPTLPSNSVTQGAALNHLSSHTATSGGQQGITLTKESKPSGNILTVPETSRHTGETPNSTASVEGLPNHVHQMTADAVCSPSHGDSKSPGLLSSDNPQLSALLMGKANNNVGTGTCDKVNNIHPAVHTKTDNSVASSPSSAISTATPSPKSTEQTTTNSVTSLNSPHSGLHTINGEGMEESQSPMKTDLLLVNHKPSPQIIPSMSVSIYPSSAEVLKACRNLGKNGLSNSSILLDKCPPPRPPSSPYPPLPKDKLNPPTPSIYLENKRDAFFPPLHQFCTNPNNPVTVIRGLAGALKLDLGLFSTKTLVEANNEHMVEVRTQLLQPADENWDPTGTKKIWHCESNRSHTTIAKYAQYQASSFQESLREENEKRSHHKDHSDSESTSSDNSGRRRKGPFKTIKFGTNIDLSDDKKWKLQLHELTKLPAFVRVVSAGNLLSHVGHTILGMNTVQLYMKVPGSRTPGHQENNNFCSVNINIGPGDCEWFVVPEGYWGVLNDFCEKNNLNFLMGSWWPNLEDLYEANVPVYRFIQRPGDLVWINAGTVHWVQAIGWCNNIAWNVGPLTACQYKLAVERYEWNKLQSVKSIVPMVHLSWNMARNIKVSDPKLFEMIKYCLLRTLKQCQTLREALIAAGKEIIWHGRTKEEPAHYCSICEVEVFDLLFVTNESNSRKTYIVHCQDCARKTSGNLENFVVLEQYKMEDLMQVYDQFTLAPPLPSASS
For the next data set, the system named is HDAC1A. To be noted: cited from earlier work.
Another data set concerns HDAC1B. The following applies: cited from earlier work.
A further data set relates to quinone reductase-1. The following applies: in mouse hepatoma cells; cited from earlier work.
Data set [6] deals with metastatic breast cancer MDA-MB 231 cell. The following applies: cited from earlier work.
In the next data set the target is T1, SIRT1 (Homo sapiens, UniProt Q96EB6).
T1 sequence (Q96EB6 1-747): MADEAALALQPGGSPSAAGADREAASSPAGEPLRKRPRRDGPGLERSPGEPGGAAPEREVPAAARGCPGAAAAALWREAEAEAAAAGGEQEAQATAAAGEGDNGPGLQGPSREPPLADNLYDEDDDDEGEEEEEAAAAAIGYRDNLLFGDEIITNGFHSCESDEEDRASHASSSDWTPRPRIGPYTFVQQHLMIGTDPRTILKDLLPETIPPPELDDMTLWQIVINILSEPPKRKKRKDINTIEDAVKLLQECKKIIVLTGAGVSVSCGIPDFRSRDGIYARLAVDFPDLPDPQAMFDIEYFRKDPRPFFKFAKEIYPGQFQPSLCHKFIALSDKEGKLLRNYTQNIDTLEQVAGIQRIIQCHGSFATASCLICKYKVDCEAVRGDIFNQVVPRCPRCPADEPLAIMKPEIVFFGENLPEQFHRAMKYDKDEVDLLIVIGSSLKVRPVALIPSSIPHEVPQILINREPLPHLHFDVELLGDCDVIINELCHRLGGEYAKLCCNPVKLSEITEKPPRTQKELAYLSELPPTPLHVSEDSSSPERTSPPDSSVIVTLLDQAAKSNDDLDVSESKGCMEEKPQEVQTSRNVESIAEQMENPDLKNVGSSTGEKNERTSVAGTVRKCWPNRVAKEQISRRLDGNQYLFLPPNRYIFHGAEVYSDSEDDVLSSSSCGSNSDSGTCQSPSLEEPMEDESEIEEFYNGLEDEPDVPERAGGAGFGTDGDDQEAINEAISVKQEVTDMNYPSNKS
To be noted: cited from earlier work.

Data set [7] has as its target O6-alkylguanine-DNA-alkyltransferase (Homo sapiens, UniProt P16455). The following applies: cited from earlier work.
Data set [8] deals with menin-MLL fusion protein interaction (Homo sapiens, UniProt O00255). The following applies: cited from earlier work.
Chain of menin-MLL fusion protein interaction (O00255 whole entry, the tested form may be a part): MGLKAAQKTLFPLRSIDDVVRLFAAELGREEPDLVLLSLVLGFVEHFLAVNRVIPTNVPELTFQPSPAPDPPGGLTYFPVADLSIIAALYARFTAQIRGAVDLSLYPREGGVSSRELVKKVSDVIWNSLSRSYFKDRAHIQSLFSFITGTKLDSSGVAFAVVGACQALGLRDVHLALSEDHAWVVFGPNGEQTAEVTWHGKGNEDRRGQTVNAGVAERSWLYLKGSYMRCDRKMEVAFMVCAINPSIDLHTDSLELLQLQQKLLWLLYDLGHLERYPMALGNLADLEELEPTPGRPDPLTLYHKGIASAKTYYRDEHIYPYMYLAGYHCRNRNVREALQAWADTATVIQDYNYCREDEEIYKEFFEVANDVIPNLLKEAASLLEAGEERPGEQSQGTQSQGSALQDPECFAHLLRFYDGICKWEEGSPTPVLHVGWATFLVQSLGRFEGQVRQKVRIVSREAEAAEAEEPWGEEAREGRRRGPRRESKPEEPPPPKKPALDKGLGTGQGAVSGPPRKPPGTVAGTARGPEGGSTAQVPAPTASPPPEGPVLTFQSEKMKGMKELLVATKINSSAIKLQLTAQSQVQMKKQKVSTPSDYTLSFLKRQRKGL
A further data set deals with MLL1 (Homo sapiens, UniProt Q03164). The following applies: cited from earlier work.
Another data set deals with BRD2, BRD3, and BRD4. The following applies: cited from earlier work.
The subject of a further data set is Colo205. The following applies: proliferation; cited from earlier work.
In another data set the test system is HCT116. The following applies: proliferation; cited from earlier work.
Data set [9] concerns HDAC activity in HeLa cell nuclear lysates. To be noted: cited from earlier work.
Another data set has as its target DNMT3B (Homo sapiens, UniProt Q9UBC3). To be noted: cited from earlier work.
A further data set deals with SIRT5 (Homo sapiens, UniProt Q9NXA8). To be noted: cited from earlier work.
Chain of SIRT5 (Q9NXA8 37-310, species assumed): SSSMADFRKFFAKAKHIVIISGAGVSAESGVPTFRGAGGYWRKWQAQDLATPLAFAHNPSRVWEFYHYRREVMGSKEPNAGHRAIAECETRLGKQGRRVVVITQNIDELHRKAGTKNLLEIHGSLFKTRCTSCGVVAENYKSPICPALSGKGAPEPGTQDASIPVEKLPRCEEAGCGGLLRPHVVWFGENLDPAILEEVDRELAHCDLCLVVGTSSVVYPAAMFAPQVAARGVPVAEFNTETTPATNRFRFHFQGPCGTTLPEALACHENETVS
The next data set addresses RET (Homo sapiens, UniProt P07949). To be noted: cited from earlier work.
A further data set has as its target Flt3 (Homo sapiens, UniProt P36888). The following applies: cited from earlier work.
For the next data set, the target named is GLP (Homo sapiens, UniProt Q9H9B1). The following applies: cited from earlier work.
For data set [10], the system named is H3K9 dimethylation in MDA-MB231 cells. To be noted: cited from earlier work.

Counter-ions that a name gives are not always drawn. Like-named read-outs stand apart in the source and are kept apart here. A value given as a limit tells only on which side of the number the result lay.

Chain of SET7/9 (Q8WTS6 whole entry, species assumed): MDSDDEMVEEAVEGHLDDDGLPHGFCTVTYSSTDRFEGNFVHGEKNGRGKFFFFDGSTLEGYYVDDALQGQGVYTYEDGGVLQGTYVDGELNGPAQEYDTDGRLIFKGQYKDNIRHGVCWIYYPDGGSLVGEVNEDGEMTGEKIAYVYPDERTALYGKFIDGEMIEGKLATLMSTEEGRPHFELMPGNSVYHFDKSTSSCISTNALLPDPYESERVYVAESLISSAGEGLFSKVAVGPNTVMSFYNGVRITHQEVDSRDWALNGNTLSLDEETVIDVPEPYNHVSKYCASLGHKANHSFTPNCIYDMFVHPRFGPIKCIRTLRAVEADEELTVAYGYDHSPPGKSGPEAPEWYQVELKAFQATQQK
Chain of HAT PCAF (p300/CREB-binding protein-associated factor) (Q92831 whole entry): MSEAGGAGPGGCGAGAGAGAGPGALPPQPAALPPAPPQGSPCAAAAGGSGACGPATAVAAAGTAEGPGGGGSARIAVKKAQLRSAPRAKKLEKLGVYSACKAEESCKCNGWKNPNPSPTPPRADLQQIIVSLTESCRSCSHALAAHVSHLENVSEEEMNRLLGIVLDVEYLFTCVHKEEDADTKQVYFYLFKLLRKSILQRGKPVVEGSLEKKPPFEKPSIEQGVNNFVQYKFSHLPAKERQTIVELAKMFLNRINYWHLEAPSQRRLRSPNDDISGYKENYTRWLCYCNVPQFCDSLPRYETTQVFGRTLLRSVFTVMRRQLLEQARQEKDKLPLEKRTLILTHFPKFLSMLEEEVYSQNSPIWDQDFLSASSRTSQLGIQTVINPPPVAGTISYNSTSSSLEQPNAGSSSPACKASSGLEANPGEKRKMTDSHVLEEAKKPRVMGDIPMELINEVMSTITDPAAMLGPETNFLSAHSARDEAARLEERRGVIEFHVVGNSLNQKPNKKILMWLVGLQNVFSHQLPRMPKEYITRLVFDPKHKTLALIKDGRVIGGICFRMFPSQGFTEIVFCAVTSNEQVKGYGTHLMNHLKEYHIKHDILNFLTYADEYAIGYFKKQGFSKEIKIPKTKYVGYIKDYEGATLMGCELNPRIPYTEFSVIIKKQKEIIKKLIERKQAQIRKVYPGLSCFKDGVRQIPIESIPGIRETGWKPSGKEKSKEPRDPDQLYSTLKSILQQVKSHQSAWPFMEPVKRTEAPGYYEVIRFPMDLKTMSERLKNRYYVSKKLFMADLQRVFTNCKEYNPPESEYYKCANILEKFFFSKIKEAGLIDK
Chain of Aurora B (Q96GD4 whole entry): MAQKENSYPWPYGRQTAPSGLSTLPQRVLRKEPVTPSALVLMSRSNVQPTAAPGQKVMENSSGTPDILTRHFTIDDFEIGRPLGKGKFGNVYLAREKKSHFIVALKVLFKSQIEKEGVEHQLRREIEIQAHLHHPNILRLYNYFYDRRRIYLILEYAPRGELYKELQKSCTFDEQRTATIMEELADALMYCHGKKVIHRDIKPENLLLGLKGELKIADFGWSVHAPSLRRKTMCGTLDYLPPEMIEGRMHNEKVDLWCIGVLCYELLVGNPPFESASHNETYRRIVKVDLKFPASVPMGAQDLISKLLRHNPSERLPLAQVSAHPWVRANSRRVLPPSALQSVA
Chain of O6-alkylguanine-DNA-alkyltransferase (P16455 whole entry, the tested form may be a part): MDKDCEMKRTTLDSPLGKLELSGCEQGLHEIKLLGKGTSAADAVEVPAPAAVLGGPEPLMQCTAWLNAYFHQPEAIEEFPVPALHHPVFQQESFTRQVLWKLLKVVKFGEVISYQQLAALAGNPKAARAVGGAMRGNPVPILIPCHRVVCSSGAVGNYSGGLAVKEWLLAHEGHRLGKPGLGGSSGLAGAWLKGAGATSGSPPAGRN

Regarding `O=C(CCCCCCC(=O)Nc1ccc(I)cc1)NO` [4-iodo-SAHA], the half-maximal effective concentration (EC50) with HT29 (proliferation) is 950 nM; in the data set with U937 leukemia cell line it was 120 nM; in data set [1] it was 1100 nM.
On to `Cl.O=C([C@@H](Cc1cccc(C(F)(F)F)c1)NS(=O)(=O)c1cc(F)c2c(c1)CCNC2)N1CCCC1` [(R)-PFI-2 (hydrochloride)], for which, on SET7/9, the concentration for half-maximal inhibition (IC50) was 2 nM and the “fold selectivity over a panel of 18 other methyltransferases” value is “nM) that demonstrates greater than 1,000-fold selectivity”.
`CN(C)Cc1ccc(-c2nc3cccc4c3n2CCNC4=O)cc1` [AG-14361]: at PARP1, the Ki was under 5 nM and the “fold more potent than the benzamides” value is “is at least 1000-fold more potent than the benzamides”.
In the case of `COCCCn1c(N)c(C(=O)NC2CCCC2)c2nc3ccccc3nc21` [CAY10591], the TNF-a levels in the data set with TNF-a (at 20 μM) was 104 pg/mL; with TNF-a (at 60 μM), 53 pg/mL.
Turning to `CCCCCOc1ccc(/C=C\c2cccc(O)c2C(=O)O)cc1` [CAY10669], in data set [2], the 50% inhibitory concentration (IC50) is 662000 nM and the “fold improvement in inhibitory potency over anacardic acid” value was 2 fold.
In the case of `O=C(/C=C/c1cccc(C(=O)NO)c1)NO` [CBHA], the neuroblastoma tumor growth result with neuroblastoma tumor is reported as “completely suppresses neuroblastoma tumor growth in SCID”.
On to `O=C(Nc1ccc(Cl)cc1)C1CCCN(C(=O)c2cc(C(F)(F)F)cc(C(F)(F)F)c2)C1` (stereo not shown) [CCG-100602], for which the half-maximal inhibitory concentration (IC50) in [3] is 9800 nM.
With `Cc1cc(CN2CCN(c3c(Br)cnc4nc(-c5ccc(N6CCN(C)CC6)cc5)[nH]c34)CC2)no1` [CCT137690], the IC50 at Aurora B is 25 nM; on Aurora C, 19 nM. At hERG ion-channel, the “effect on hERG ion-channel” value is “nM. It has little effect on hERG ion-channel”.
Take `CC(=O)Nc1ccc(C(=O)Nc2ccccc2N)cc1` [CI-994, N-acetyldinaline]: the “IC50 for CI-994 in terms of cell viability relative to control cells” value in the data set with HL-60 cells and with U937 cells was “lower IC50” throughout. In addition, the “viability of shRNF5-expressing cells relative to control WT RNF5 cells” value in data set [4] was “decreased viability of shRNF5-expressing cells”.
As for `Cc1sc2c(c1C)C(c1ccc(Cl)cc1)=N[C@@H](CC(N)=O)c1nnc(C)n1-2` [CPI-203], the half-maximal inhibitory concentration (IC50) at BRD4 was 37 nM.
For the compound `COc1cc([C@@H]2c3cc4c(cc3[C@@H](O[C@@H]3O[C@@H]5CO[C@@H](C)O[C@H]5[C@H](O)[C@H]3O)[C@H]3COC(=O)[C@H]23)OCO4)cc(OC)c1O` [Etoposide], the concentration for half-maximal inhibition (IC50) was 5.14 nM in the data set on MCF-7 cells (cell-based cytotoxicity assay) and 2480 nM in data set [5].
As to `NC(=O)[C@H](CCCN=C(N)CF)NC(=O)c1ccccc1` [F-Amidine (trifluoroacetate salt), F-Amidine], the IC50 in the data set with HT29 (cytotoxic) is 1000 nM; in the data set on MCF-7 cells, 500 nM; at PAD3, 350000 nM; at PAD1, 29500 nM; in the data set with HL-60 it was 500 nM.
With `CC(C)(C)OC(=O)CN(Cc1ccc(Cl)cc1)Cc1ccc([N+](=O)[O-])s1` [GSK4112], the EC50 at REV-ERBa was 400 nM.
Regarding `O=C(O)CCNc1cc(N2CCc3ccccc3CC2)nc(-c2ccccn2)n1` [GSK-J1 (sodium salt)], the IC50 at UTX was 56000 nM.
For `CCN(CC)Cc1ccc2cc(COC(=O)Nc3ccc(C(=O)NO)cc3)ccc2c1` [Givinostat (ITF2357), Givinostat], the IC50 with HDAC1A is 16 nM; in the data set with HDAC1B it was 7.5 nM.
With `O=C(/C=C/c1ccc(O)cc1)c1ccc(O)cc1O` [Isoliquiritigenin], the “concentration required to double activity” value in the data set on quinone reductase-1 is on record as 1.8 μM in mouse hepatoma cells.
Regarding `O=C(NCc1ccccc1)c1c(/N=C/c2c(O)ccc3ccccc23)sc2c1CCCC2` [JGB1741], the results for the IC50 (in data set [6]; at SIRT1) were 512 nM and 15000 nM, respectively.
Turning to `Nc1nc(OCc2cc(Br)cs2)c2[nH]cnc2n1` [Lomeguatrib], the IC50 in [7] is 5 nM.
Take `CC(C)c1cc2c(N3CCN(C4=NCC(C)(C)S4)CC3)ncnc2s1` [MI-3 (Menin-MLL Inhibitor)]: the IC50 in data set [8] is 648 nM.
`CCc1cc2c(N3CCN(c4nncs4)CC3)ncnc2s1` [MI-nc (hydrochloride)]: the half-inhibitory concentration (IC50) in [8] is 193000 nM.
On to `CCC(CC)(NC(=O)C(C)C)C(=O)N[C@@H](CCCN=C(N)N)C(=O)NC1(C(=O)NC(c2ccc(F)cc2)c2ccc(F)cc2)CCCC1` [MM-102], for which the IC50 at MLL1 is 400 nM.
With `Cc1sc2c(c1C)C(c1ccc(Cl)cc1)=N[C@@H](CC(=O)Nc1ccc(O)cc1)c1nnc(C)n1-2` [OTX015], in the data set with BRD2, BRD3, and BRD4, the half-maximal effective concentration (EC50) is 10 to 19 nM.
On to `Cc1cc(Nc2nn(-c3ccccc3)c(=O)c3ccccc23)n[nH]1` [Phthalazinone pyrazole], for which the concentration for half-maximal inhibition (IC50) with MCF-7 cells was 1600 nM; in the data set with Colo205 it was 2900 nM; with HCT116, 7800 nM.
Regarding `C#CCCCC(=O)Nc1ccc(C(=O)c2ccc(NC(=O)CCCCCCC(=O)NO)cc2)cc1` [SAHA-BPyne], in [9], the concentration for half-maximal inhibition (IC50) is about 3000 nM.
As for `Cc1cc(Nc2ccc(NC(=O)c3ccc(Nc4ccnc5ccccc45)cc3)cc2)nc(N)n1` [SGI-1027], the 50% inhibitory concentration (IC50) at DNMT3B was 7500 nM.
On to `O=c1[nH]c(=S)[nH]c(-c2ccccc2)c1Cc1c(O)ccc2ccccc12` [SIRT1/2 Inhibitor IV], for which the IC50 at SIRT5 is over 300000 nM.
Turning to `Cc1cnc(Nc2ccc(N3CCN(C)CC3)cc2)nc1Nc1cccc(S(=O)(=O)NC(C)(C)C)c1` [TG101209], the IC50 on RET is 17 nM; on Flt3, 25 nM.
Take `COc1cc2c(NC3CCN(C4CCCCC4)CC3)nc(N3CCCN(C(C)C)CC3)nc2cc1OCCCN1CCCCC1` [UNC0646]: the concentration for half-maximal inhibition (IC50) is 15 nM at GLP and 26 nM in data set [10].

For orientation: EC50 means the concentration giving half of the maximal effect. By IC50 is commonly meant the concentration that inhibits the measured activity by half. The term Ki denotes the equilibrium dissociation constant of an inhibitor or competing ligand from its target.

The record behind these values is patent US20230265432A1, “METHODS AND COMPOSITIONS FOR TREATING ACUTE MYELOID LEUKEMIA” (Sanford Burnham Prebys Medical Discovery Institute, priority 2021, published 2023).
